From ChEMBL document CHEMBL4184159, “Delphinidin inhibits BDNF-induced migration and invasion in SKOV3 ovarian cancer cells” (2017)
Calls of active or inactive are those of the source. The rule behind the calls is not given here.

What was measured:
SK-OV-3 [1] = test: Antimigratory activity against human SKOV3 cells assessed as inhibition of BDNF-induced cell migration at 20 uM after 24 hrs by scratch wound healing assay; assay type: functional, cell-based
[2] = target: RAC-alpha serine/threonine-protein kinase (Homo sapiens) (UniProt P31749); test: Inhibition of BDNF-induced AKT phosphorylation in human SKOV3 cells after 24 hrs by Western blot analysis; assay type: cell-based
Chain of RAC-alpha serine/threonine-protein kinase (Homo sapiens) (P31749 whole entry): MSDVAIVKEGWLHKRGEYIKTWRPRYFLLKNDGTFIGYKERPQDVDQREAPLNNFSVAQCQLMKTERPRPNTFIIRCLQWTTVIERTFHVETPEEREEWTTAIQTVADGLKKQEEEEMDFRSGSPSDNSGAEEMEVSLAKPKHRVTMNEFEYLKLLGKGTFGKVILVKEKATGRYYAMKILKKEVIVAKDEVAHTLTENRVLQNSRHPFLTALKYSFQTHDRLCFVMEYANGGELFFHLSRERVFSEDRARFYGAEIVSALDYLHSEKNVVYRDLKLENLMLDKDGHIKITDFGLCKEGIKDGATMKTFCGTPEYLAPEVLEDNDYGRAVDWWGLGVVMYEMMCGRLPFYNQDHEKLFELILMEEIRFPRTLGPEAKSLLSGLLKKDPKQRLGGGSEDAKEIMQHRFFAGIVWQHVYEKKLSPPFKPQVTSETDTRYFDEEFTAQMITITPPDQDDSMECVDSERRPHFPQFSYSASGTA

SK-OV-3 [3] = test: Inhibition of BDNF-induced invasion in human SKOV3 cells at 20 uM after 24 hrs in by matrigel invasion assay; assay type: functional, cell-based
SK-OV-3 [4] = test: Antiproliferative activity against human SKOV3 cells at 5 uM after 24 hrs by CCK-8 assay; assay type: functional
SK-OV-3 [5] = test: Antiproliferative activity against human SKOV3 cells at 10 uM after 24 hrs by CCK-8 assay; assay type: functional
SK-OV-3 [6] = test: Antiproliferative activity against human SKOV3 cells at 50 uM after 24 hrs by CCK-8 assay; assay type: functional
SK-OV-3 [7] = test: Antiproliferative activity against human SKOV3 cells at 75 uM after 24 hrs by CCK-8 assay; assay type: functional
SK-OV-3 [8] = test: Antiproliferative activity against human SKOV3 cells at 100 uM after 24 hrs by CCK-8 assay; assay type: functional, cell-based
SK-OV-3 [9] = test: Antiproliferative activity against human SKOV3 cells at 200 uM after 24 hrs by CCK-8 assay; assay type: functional, cell-based
SK-OV-3 [10] = test: Antimigratory activity against human SKOV3 cells assessed as inhibition of BDNF-induced cell migration after 24 hrs by scratch wound healing assay; assay type: functional, cell-based
SK-OV-3 [11] = test: Inhibition of BDNF-induced invasion in human SKOV3 cells after 24 hrs in by matrigel invasion assay; assay type: functional, cell-based
SK-OV-3 [12] = test: Downregulation of BDNF-induced MMP2 mRNA expression in human SKOV3 cells after 24 hrs by qRT-PCR analysis; assay type: functional, cell-based
SK-OV-3 [13] = test: Downregulation of BDNF-induced MMP9 mRNA expression in human SKOV3 cells after 24 hrs by qRT-PCR analysis; assay type: functional, cell-based
Homo sapiens = organism: Homo sapiens; test: Inhibition of BDNF-induced NFkappaB nuclear translocation in human SKOV3 cells at 50 to 75 uM after 24 hrs by Western blot analysis; assay type: cell-based

Question: Which results are given for O=c1cc(N2CCOCC2)oc2c(-c3ccccc3)cccc12?
Answer: inhibition (SK-OV-3 [1]): Active; inhibition [2]: Dose-dependent effect; inhibition (SK-OV-3 [3]): Active

Question: With Oc1cc(O)c2cc(O)c(-c3cc(O)c(O)c(O)c3)[o+]c2c1.[Cl-] [DELPHINIDIN CHLORIDE] as the compound, how does the Activity (SK-OV-3 [4]) read?
Answer: >98%

Question: What about the Activity (SK-OV-3 [5]) of the same compound?
Answer: >98%

Question: And the Activity (SK-OV-3 [6])?
Answer: >98%

Question: And the Activity (SK-OV-3 [7])?
Answer: >98%

Question: And the Activity (SK-OV-3 [8])?
Answer: Active

Question: And the Activity (SK-OV-3 [9])?
Answer: Active

Question: And the Activity (SK-OV-3 [10])?
Answer: Dose-dependent effect

Question: And the inhibition (SK-OV-3 [11])?
Answer: Dose-dependent effect

Question: What about the Activity (SK-OV-3 [12]) of the same compound?
Answer: Dose-dependent effect

Question: What about the Activity (SK-OV-3 [13]) of the same compound?
Answer: Dose-dependent effect

Question: What about the inhibition [2] of the same compound?
Answer: Dose-dependent effect

Question: And the inhibition (Homo sapiens)?
Answer: Active
